pKi: −log10 of the molar value.
target: human PDE10A2 (Homo sapiens (Human), UniProt Q9Y233); assay: PDE10 fluorescence polarization (IMAP FP) inhibition assay; format: biochemical; details: read-out: PDE10A Ki
Protocol: The activity of the compounds in accordance with the present invention as PDE10 inhibitors may be readily determined without undue experimentation using a fluorescence polarization (FP) methodology that is well known in the art (Huang, W., et al., J. Biomol Screen, 2002, 7: 215).
In a typical experiment the PDE10 inhibitory activity of the compounds of the present invention was determined in accordance with the following experimental method. PDE10A2 was amplified from human fetal brain cDNA (Clontech, Mountain View, Calif.) using a forward primer corresponding to nucleotides 56-77 of human PDE10A2 (Accession No. AF127480, Genbank Identifier 4894716), containing a Kozak consensus sequence, and a reverse primer corresponding to nucleotides 2406-2413 of human PDE10A2 (Accession No. AF127480, Genbank Identifier 4894716). Amplification with Easy-A polymerase (Stratagene, La Jolla, Calif.) was 95° C. for 2 minutes followed by thirty three cycles of 95° C. for 40 seconds, 55° C. for 30 seconds, and 72° C. for 2 minutes 48 seconds. Final extension was 72° C. for 7 minutes. The PCR product was TA cloned into pcDNA3.2-TOPO (Invitrogen, Carlsbad, Calif.) according to standard protocol. AD293 cells with 70-80% confluency were transiently transfected with human PDE10A2/pcDNA3.2-TOPO using Lipofectamine 2000 according to manufacturer specifications (Invitrogen, Carlsbad, Calif.). Cells were harvested 48 hours post-transfection and lysed by sonication (setting 3, 10×5 sec pulses) in a buffer containing 20 mM HEPES, 1 mM EDTA and protease inhibitor cocktail (Roche). Lysate was collected by centrifugation at 75,000×g for 20 minutes. Supernatant containing the cytoplasmic fraction was used for evaluation of PDE10A2 activity. The fluorescence polarization assay for cyclic nucleotide phosphodiesterases was performed using an IMAP® FP kit supplied by Molecular Devices, Sunnyvale, Calif. (product # R8139). IMAP® technology has been applied previously to phosphodiesterase assays (Huang, W., et al., J. Biomol Screen, 2002, 7: 215). Assays were performed at room temperature in 384-well microtiter plates with an incubation volume of 20.2 μL. Solutions of test compounds were prepared in DMSO and serially diluted with DMSO to yield 8 μL of each of 10 solutions differing by 3-fold in concentration, at 32 serial dilutions per plate. 100% inhibition is determined using a known PDE10 inhibitor, which can be any compound that is present at 5,000 times its Ki value in the assay described as follows, such as papaverine (see Siuciak, et al. Neuropharmacology (2006) 51:386-396; Becker, et al. Behav Brain Res (2008) 186(2):155-60; Threlfell, et al., J Pharmacol Exp Ther (2009) 328(3):785-795), 2-{4-[pyridin-4-yl-1-(2,2,2-trifluoroethyl)-1H-pyrazol-3-yl]phenoxymethyl}quinoline succinic acid or 2-[4-(1-methyl-4-pyridin-4-yl-1H-pyrazol-3-yl)-phenoxymethyl]quinoline succinic acid (see Schmidt, et al. J Pharmacol Exp Ther (2008) 325:681-690; Threlfell, et al., J Pharmacol Exp Ther (2009) 328(3): 785-795). 0% of inhibition is determined by using DMSO (1% final concentrations).
A Labcyte Echo 555 (Labcyte, Sunnyvale, Calif.) is used to dispense 200 nL from each well of the titration plate to the 384 well assay plate. A solution of enzyme (1/1600 dilution from aliquots; sufficient to produce 20% substrate conversion) and a separate solution of FAM-labeled cAMP PDE from Molecular Devices (product # R7506), at a final concentration of 50 nM are made in the assay buffer (10 mM Tris HCl, pH 7.2, 10 mM MgCl2, 0.05% NaN3 0.01% Tween-20, and 1 mM DTT). The enzyme and the substrate are then added to the assay plates in two consecutive additions of 10 μL, and then shaken to mix. The reaction is allowed to proceed at room temperature for 30 minutes. A binding solution is then made from the kit components, comprised of 80% Solution A, 20% Solution B and binding reagent at a volume of 1/600 the total binding solution.

Chain of human PDE10A2 (Q9Y233 267-1055): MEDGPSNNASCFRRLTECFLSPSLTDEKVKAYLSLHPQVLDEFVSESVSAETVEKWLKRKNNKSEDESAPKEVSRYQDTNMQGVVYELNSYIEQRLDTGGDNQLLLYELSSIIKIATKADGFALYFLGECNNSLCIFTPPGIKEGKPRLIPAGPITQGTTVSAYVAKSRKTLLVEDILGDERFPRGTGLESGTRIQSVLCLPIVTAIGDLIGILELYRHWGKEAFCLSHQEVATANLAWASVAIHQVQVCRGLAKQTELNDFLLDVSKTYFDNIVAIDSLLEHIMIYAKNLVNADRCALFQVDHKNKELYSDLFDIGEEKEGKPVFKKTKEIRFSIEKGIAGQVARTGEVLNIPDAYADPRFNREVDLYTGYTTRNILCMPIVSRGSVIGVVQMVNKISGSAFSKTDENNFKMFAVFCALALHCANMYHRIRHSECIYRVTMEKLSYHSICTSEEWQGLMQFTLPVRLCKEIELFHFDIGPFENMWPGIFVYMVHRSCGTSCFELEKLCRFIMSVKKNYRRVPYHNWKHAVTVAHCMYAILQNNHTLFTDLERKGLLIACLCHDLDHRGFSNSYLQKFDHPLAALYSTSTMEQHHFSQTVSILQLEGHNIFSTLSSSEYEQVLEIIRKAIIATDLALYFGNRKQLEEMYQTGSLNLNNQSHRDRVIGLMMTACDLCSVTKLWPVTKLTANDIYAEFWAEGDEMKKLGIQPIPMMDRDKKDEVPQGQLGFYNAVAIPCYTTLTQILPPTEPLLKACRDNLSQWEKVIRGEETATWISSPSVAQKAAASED

In order of rising pKi:
1. Cc1nc(NCc2sc(C)nc2C)c(C)c(OC[C@H]2C[C@@H]2c2ccccn2)n1 [Compound 2-47, S,S-N-[(2,4-dimethyl-1,3-thiazol-5-yl)methyl]-2,5-dimethyl-6-[(2-pyridin-2-ylcyclopropyl)methoxy] pyrimidin-4-amine]  7.38
2. Cc1nc(NCc2ccncc2C)cc(OCC2CC2c2ccccn2)n1 (stereo not shown) [Compound 14-3, 2-methyl-N-((3-methylpyridin-4-yl)methyl)-6-((2-(pyridin-2-yl)cyclopropyl)methoxy)pyrimidin-4-amine]  8.28
3. Cc1ccc([C@H]2C[C@@H]2COc2nc(C)nc(NCc3nnc(C)s3)c2Cl)nc1 [Compound 2-58, S,S-5-chloro-2-methyl-6-{[(1S,2S)-2-(5-methylpyridin-2-yl)cyclopropyl]methoxy}-N-[(5-methyl-1,3,4-thiadiazol-2-yl)methyl]pyrimidin-4-amine]  8.41
4. Cc1nc(NCc2nnc(C3CC3)s2)cc(OC[C@H]2C[C@@H]2c2ccccn2)n1 [Compound 2-37, S,S-N-[(5-cyclopropyl-1,3,4-thiadiazol-2-yl)methyl]-2-methyl-6-[(2-pyridin-2-ylcyclopropyl)methoxy] pyrimidin-4-amine]  8.42
5. Cc1nnc(CNc2nc(N)nc(OC[C@H]3C[C@@H]3c3ccc(Cl)cn3)c2F)s1 [Compound 3-19, 6-{[(1S,2S)-2-(5-chloropyridin-2-yl)cyclopropyl]methoxy}-5-fluoro-N-4-[(5-methyl-1,3,4-thiadiazol-2-yl)methyl]pyrimidine-2,4-diamine]  8.44
6. COc1cccnc1[C@H]1C[C@@H]1COc1cc(NCc2cnn(C)c2)nc(C)n1 (stereo in doubt) [Compound 2-14, 6-{[2-(3-methoxypyridin-2-yl)cyclopropyl]methoxy}-2-methyl-N-[(1-methyl-1H-pyrazol-4-yl)methyl]pyrimidin-4-amine]  8.44
7. Cc1nc(NCc2cnn(C)c2)cc(OC[C@H]2C[C@@H]2c2ccc(C(F)F)cn2)n1 (stereo in doubt) [Compound 2-17, 6-({2-[5-(difluoromethyl)pyridin-2-yl]cyclopropyl}methoxy)-2-methyl-N-[(1-methyl-1H-pyrazol-4-yl)methyl]pyrimidin-4-amine]  8.46
8. Cc1nc(C)c(CNc2cc(OC[C@H]3C[C@@H]3c3ccccn3)nc(C3CC3)n2)s1 [Compound 3-11, S,S-2-cyclopropyl-N-[(2,4-dimethyl-1,3-thiazol-5-yl)methyl]-6-[(2-pyridin-2-ylcyclopropyl)methoxy] pyrimidin-4-amine]  8.80
9. Cc1ccc([C@H]2C[C@@H]2COc2nc(N)nc(NCc3nnc(C)s3)c2C#N)nc1 [Compound 16-4, 2-amino-4-{[(1S,2S)-2-(5-methylpyridin-2-yl)cyclopropyl]methoxy}-6-{[(5-methyl-1,3,4-thiadiazol-2-yl)methyl]amino}pyrimidine-5-carbonitrile]  8.80
10. Cc1nnc(CNc2cc(OC[C@H]3C[C@@H]3c3ccccn3)nc(CF)n2)s1 [Compound 3-8, S,S-2-(fluoromethyl)-N-[(5-methyl-1,3,4-thiadiazol-2-yl)methyl]-6-[(2-pyridin-2-ylcyclopropyl)methoxy] pyrimidin-4-amine]  8.96
11. Cc1nc(NCc2cc(C)on2)cc(OCC2CC2c2ccccn2)n1 (stereo not shown) [Compound 12-2, 2-methyl-N-((5-methylisoxazol-3-yl)methyl)-6-((2-(pyridin-2-yl)cyclopropyl)methoxy)-pyrimidin-4-amine]  8.96
12. Cc1nc(NCc2nnc(C)s2)cc(OC[C@H]2C[C@@H]2c2ccc(-c3cccnc3)cn2)n1 (stereo in doubt) [Compound 8-8, 6-{[2-(3,3′-bipyridin-6-yl)cyclopropyl]methoxy}-2-methyl-N-[(5-methyl-1,3,4-thiadiazol-2-yl)methyl] pyrimidin-4-amine]  9.00
13. Cc1cc(CNc2cc(OC[C@H]3C[C@@H]3c3ccc4ccccc4n3)nc(C)n2)n(C)n1 [Compound 2-4, S,S-N-[(1,3-dimethyl-1H-pyrazol-5-yl)methyl]-2-methyl-6-[(2-quinolin-2-ylcyclopropyl)methoxy] pyrimidin-4-amine]  9.22
14. COc1ccc([C@H]2C[C@@H]2COc2nc(N)nc(NCc3nnc(C)s3)c2F)nc1 [Compound 3-13, 5-fluoro-6-{[(1S,2S)-2-(5-methoxypyridin-2-yl)cyclopropyl]methoxy}-N-4-[(5-methyl-1,3,4-thiadiazol-2-yl)methyl]pyrimidine-2,4-diamine]  9.30
15. Cc1nnc(CNc2nc(N)nc(OC[C@H]3C[C@@H]3c3ccc4c(n3)CCC4)c2F)s1 [Compound 3-25, S,S-6-(((1S,2S)-2-(6,7-dihydro-5H-cyclopenta[b]pyridin-2-yl)cyclopropyl)methoxy)-5-fluoro-N4-((5-methyl-1,3,4-thiadiazol-2-yl)methyl)pyrimidine-2,4-diamine]  10.05
16. Cc1nc(NCc2nnc(C)s2)cc(OC[C@H]2C[C@@H]2c2ccc(C3CC3)cn2)n1 (stereo in doubt) [Compound 9-2, 6-{[2-(5-cyclopropylpyridin-2-yl)cyclopropyl]methoxy}-2-methyl-N-[(5-methyl-1,3,4-thiadiazol-2-yl)methyl]pyrimidin-4-amine]  10.10
17. COc1ccc([C@H]2C[C@@H]2COc2cc(NCc3nnc(C)s3)nc(N)n2)nc1 [Compound 2-53, S,S-6-{[(1S,2S)-2-(5-methoxypyridin-2-yl)cyclopropyl]methoxy}-N-4-[(5-methyl-1,3,4-thiadiazol-2-yl)methyl]pyrimidine-2,4-diamine]  10.30
18. Cc1nc(NCc2cnn(C)c2)cc(OCC2CC2c2ccccn2)n1 (stereo not shown) [Compound 1-2, 2-methyl-N-[(1-methyl-1H-pyrazol-4-yl)methyl]-6-[(2-pyridin-2-ylcyclopropyl)methoxy]pyrimidin-4-amine]  10.52
19. Cc1nc(NCc2nnc(C)s2)cc(OC[C@H]2C[C@@H]2c2ccc3ncccc3n2)n1 [Compound 2-27, S,S-2-methyl-N-[(5-methyl-1,3,4-thiadiazol-2-yl)methyl]-6-{[2-(1,5-naphthyridin-2-yl)cyclopropyl]methoxy} pyrimidin-4-amine]  10.70
